Holding throughout (assay type): biochemical
One assay has as its system iNicSnFR12-S467R. Briefly: Nicotine-induced fluorescence increase of purified iNicSnFR12-S467R, Hill fit. To be noted: read-out: EC50 (nicotine-induced fluorescence, iNicSnFR12-S467R); SEM, n = 3.
Assay [1] relates to iNicSnFR12. To be noted: read-out: EC50, μM (Figure 1B, 1C, purified sensors); n = 3.
The subject of a further assay is iNicSnFR11. Briefly: Fluorescence dose-response relations of nicotinic drugs at purified iNicSnFR11. The note with it: purified iNicSnFR11 100 nM, 3×PBS pH 7.40, Hill fit.
Assay [2] concerns iNicSnFR12. Briefly: Fluorescence dose-response relations of nicotinic drugs at purified iNicSnFR12.

Molecules are shown by their SMILES.

A word on the EC50: it is the concentration at which the effect is half-maximal. Turning to `CN1CCC[C@H]1c1cccnc1` [nicotine], the EC50 in the assay with iNicSnFR12-S467R turned out to be 25.6 µM.
For the compound `C[N+](C)(C)CCO` [choline], the figures for the EC50 in the assay on iNicSnFR12 [1] and with iNicSnFR11 were at least 100 µM and around 170 µM, respectively. Further, the “expected activation at iNicSnFR12” value in the assay on iNicSnFR12 [2] ([choline] 1 μM as in 10% rat serum) is “at most 1%”; in the assay on iNicSnFR12 [2] ([choline] 2.5 μM as in 25% human serum), at most 2.5%.

The values above are taken from paper PMC9882114 (bioRxiv, 2024).
